The nature of the data set: 18-week stability of Compound I tablets packaged in 60 cc HDPE bottles with HIS; degradation products by HPLC. The class given is physicochemical. The conditions noted are these: Initial bulk, 0 weeks. As to the method:
In an initial evaluation of oxygen absorbers, the bottles were sealed with heat induction seals (HIS). The following samples were prepared by placing the following materials in a round HDPE bottle (60 cc capacity) and sealing with a heat-induction seal:
Tablets were stored eighteen weeks under three different conditions: (1) 5° C./75% relative humidity (RH); (2) 40° C./75% RH; and (3) 50° C./20% RH. Air in the bottles was sampled using a gas tight syringe equipped with a septum seal as the foil was punctured. The sampled air was analyzed using a Mocon™ headspace analyzer (PAL Model 450 available from Mocon™ Inc., Minneapolis, Minn.). Each tablet was dissolved in 250 ml of a solution prepared by dissolving 21.6 g of octane sulfonic acid and 6.8 g of potassium phosphate in 1.0 liters of purified water and adjusting the pH to 3 with phosphoric acid followed by the addition of 818 mL of acetonitrile. Degradation products were identified by high pressure liquid chromatography (HPLC) (Waters sym C8 column, 15 cm×3.9 mm, nylon acrodisc filter, HPLC HP 1100 series, 20 μl injection volume, flow of 1 mL/min). The degradation products were compared against three known standards (Compounds I-1A′, I-1A″ and I-1B).

With `COc1ccc(C(C)C)cc1CN[C@@H]1C2CCN(CC2)[C@@H]1C(c1ccccc1)c1ccccc1` [Compound I], the “I-1A′” value is recorded as 0.000 Wt %, the “I-1A″” value came out at 0.300 Wt %, the I-1B was 0.027 Wt % and the Total amounted to 0.37%. Moreover, the “Unknown (first Unknown column)” value was determined as 0.01 Area % and the “Unknown (second Unknown column)” value is reported as 0.03 Area %.

Values taken from patent US6688468B2, “Pharmaceutical kit for oxygen-sensitive drugs” (Pfizer Inc., priority 2001, dated 2004).
